Here are results for 2 compounds from patent publication US7041661B2, “Use of thiazolobenzoheterocycles for treating multiple sclerosis” (Aventis Pharmaceuticals Inc., priority 2002, dated 2006).

Experiment [1] deals with Experimental Allergic Encephalomyelitis (EAE) of female SJL mice. Briefly: PLP 139-151 induced EAE in SJL/J mice, daily neurological score. The format is in vivo, mouse. The text has this: The utility of the thiazobenzohetercyclic compounds of formula I for the treatment of various conditions associated with multiple sclerosis can be assessed by measuring their ability to inhibit effects of experimental allergic encephalomyelitis (EAE) in laboratory animals.
Experimental Autoimmune Encephalomyelitis (EAE) is a T-cell-mediated autoimmune disease of the nervous system that develops in susceptible animals following sensitization with either whole spinal cord homogenate or a myelin component. It is known that EAE reflects or mimics many of the pathophysiological steps in MS, including the role of certain adhesion molecules, the influence of T cells and antibodies reactive to components of the myelin sheath, the participation of metalloproteases in penetrating the blood-brain barrier, and the cytotoxic role of certain cytokines. One of the marketed MS therapies, glatiramer acetate (Copaxone®) was developed preclinically based on its success in treating various models of EAE.
EAE was induced in female SJL/J mice (8 wks old, from Jackson Laboratories) by immunization with the myelin Proteolipid Protein (PLP 139-151) from BACHEM, Bioscience. PLP139-151 was dissolved in H2O:PBS (1:1) solution to a concentration of 7.5 mg/10 ml (for 75 ug PLP per mouse) and emulsified with an equal volume of CFA supplemented with 40 mg/10 ml heated-killed mycobacterium tuberculosis H37Ra (BD Bioscience). Mice were injected s.c. with 0.2 ml of peptide emulsion in the abdominal flank (0.1 ml on each side). On the same day and 72 hr later, mice were injected i.v. with 35 ng and 50 ng of Bordetella Pertussis toxin (List Biological Laboratories ) in saline, respectively.
Compound A, one representative of thiazolobenzoheterocyclic compounds, was examined in the PLP/SJL mouse EAE model.
Study 1: There were five groups, i.e., vehicle (water), Compound A at doses of 5, 10 and 20 mg/kg and dexamethasone (DEX) at a dose of 3 mg/kg. Treatment was begun on day 7 after PLP immunization. Mice were dosed twice per day for 22 days. Results are as follows:
Study 2: There were five groups, i.e., vehicle (water), Compound A at doses of 10, 20 and 30/40 mg/kg and dexamethasone (DEX) at a dose of 3 mg/kg. Treatment was begun on day 7 after PLP immunization. Mice were dosed twice per day for 18 days.

The test system of experiment [2] is Experimental Allergic Encephalomyelitis (EAE) of female DA (Dark Agouti) rats. Briefly: Rat spinal cord homogenate induced EAE in DA rats, daily neurological score. The experiment is classed as in vivo. As to conditions: doses of 1, 3 and 10 mg/kg p.o., twice daily for 28 days from one day post-immunization. How it is done: EAE was induced in female DA (Dark Agouti) rats (8 wks old, from Harlan) by immunization with the 25% w/v rat spinal cord homogenate (r-SCH) in saline emulsified with an equal volume of CFA supplemented with 40 mg/10 ml heated-killed mycobacterium tuberculosis H37Ra (BD Bioscience). Rats were injected s.c. with 0.2 ml of emulsion in the base of tail.
Rats were scored daily before treatment starting from day 5 post-immunization through the entire experiment by a well-known behavioral scale system: Score 0, normal; 0.5, partial limp tail; 1, complete limp tail; 2, abnormal gait; 3, partial hind limb paralysis, and mice unable to walk normally; 3.5, one leg is completely paralyzed, and one leg is partially paralyzed; 4, complete hind limb paralysis; 4.5, Legs are completely paralyzed and Moribund; 5, death due to EAE. Compound A and Compound B (active metabolite of Compound A), two representatives of thiazolobenzoheterocyclic compounds, were examined in DA rat EAE procedure.
Compound A and Compound B were given one-day post-immunization, p.o. route, twice daily for 28 days.

The mark [3] stands for this setting: Study 2, SJL EAE mice, twice per day for 18 days from day 7.

Take `N=c1sc2cc(C(F)(F)F)cc3c2n1CC[S+]([O-])C3` (racemic) [Compound A, (R,S)-2-imino-9-trifluoromethyl-4,5-dihydro-2H,7H-thiazolo[3,4,5-de][4,1]benzothiazepine-6-oxide]: the “neurological deficits in the EAE mice (FIG. 1)” value in experiment [1] (Study 1, doses of 10 and 20 mg/kg p.o., twice per day for 22 days from day 7 after PLP immunization, vs vehicle) is listed as “significantly reduced”. Further, in experiment [1] (setting [3]), the EAE incidence result was “reduced” and the disease onset entry was “delayed”. Moreover, in experiment [1] (Study 2, doses of 10 and 20 mg/kg, twice per day for 18 days from day 7 after PLP immunization), the “neurological scores in SJL EAE mice” value was “significant reduced”. Moreover, in experiment [2], the EAE incidence entry is “significantly reduced”, the cumulative neurological scores entry is on record as “significantly reduced” and the maximal neurological scores entry was “significantly reduced”.
Turning to `N=c1sc2cc(C(F)(F)F)cc3c2n1CCS(=O)(=O)C3` [Compound B, (R,S)-2-imino-9-trifluoromethyl-4,5-dihydro-2H,7H-thiazolo[3,4,5-de][4,1]benzothiazepine-6,6-dioxide], in experiment [2], the EAE incidence entry was “significantly reduced”, the cumulative neurological scores result is “significantly reduced” and the maximal neurological scores entry is given as “significantly reduced”.
